Patent US20020045780A1, “Biologically active spermidine analogues, pharmaceutical compositions and methods of treatment” (priority 1997, published 2002)
Several values for one entry are separate records, joined by “and”; a condition that tells them apart may be missing. Identical values can stand only once. Entries after “also recorded” stand apart in the source; their conditions may differ. Counter-ions that a name gives are not always drawn. Like-named read-outs stand apart in the source and are kept apart here.

What was measured:
[1] = test system: S-adenosylmethionine decarboxylase (AdoMetDC); conditions: L1210, 1 μM at 6 hours; cited from earlier work
[2] = biological target: polyamine transport apparatus; conditions: inhibition of spermidine transport, L1210; read-out: Ki, corresponding tetraamine (in parentheses); cited from earlier work
[3] = test system: ornithine decarboxylase (ODC); conditions: L1210, 1 μM at 4 hours; cited from earlier work
[4] = test system: spermidine/spermine acetyltransferase (SSAT); conditions: L1210, 2 μM at 48 hours (tetraamine analogues); cited from earlier work
L1210 cells [5] = conditions: 48 hours, cited from earlier work; for Put, corresponding tetraamine (in parentheses) / Spd, corresponding tetraamine (in parentheses) / Spm, corresponding tetraamine (in parentheses): % of untreated control; for Analogue, corresponding tetraamine (in parentheses): intracellular amount
[6] = Acute toxicity in mice (single i.p. dose); format: in vivo; conditions: female, CD-1, mouse, in vivo, ip, mice, single dose i.p., scored two hours after dose, read-out: Acute LD50
Protocol: In the current study, the acute toxicity of six analogues and the chronic toxicity of two triamines were measured (Table 7). The value of all polyamine LD50s are shown in both mg/kg and mmol/kg for comparison. […] The animals were scored two hours after administration of the drug. It is clear that the acute LD50s for triamine analogues are approximately twice the acute LD50s for the corresponding tetraamine analogues.
(§1) Acute and chronic toxicities were assessed in 10-12 week old CD-1 female mice from Harlan Sprague-Dawley. For acute toxicities, the polyamine analogues were administered in a single i.p. injection to groups of five or six animals at each dose. The animals were scored two hours after administration of the dose. All survivors were further observed for 10 days to assess late onset of toxicity from the single acute dose. In the chronic toxicity regimen, mice were administered polyamine analogue in three i.p. doses per day (t.i.d.) for six days, for a total of eighteen doses per animal. Appetite, weight and overall appearance were monitored daily. […] At least three test groups of 5-6 animals each, representing three different dose levels, were evaluated for each analogue tested. These dose levels were chosen so that at least two groups presented with lethalities, one with a high fraction of lethalities (>0.50, but <1.00).

mice [7] = conditions: mice, i.p. t.i.d. × 6 days, cited from earlier work
L1210 cells [8] = conditions: cited from earlier work
mice [9] = format: in vivo
Protocol: In the chronic toxicity regimen, mice were administered the polyamine analogue in three doses per day (t.i.d.) for six days for a total of eighteen injections per animal and observed for 10 days after the final dose for lethalities. […] A similar difference is also observed in the chronic toxicity of DE(3,4).
as §1

[10] = test system: S-adenosylmethionine decarboxylase (AdoMetDC); assay: AdoMetDC activity in treated L1210 cells; format: cell-based, murine; conditions: L1210, 1 μM at 6 hours
In short: (§2)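 L1210 cells treated with triamines; ODC activity measured at 4 h and AdoMetDC at 6 h as ^14CO2 released from [^14C]-carboxyl-labeled L-ornithine (ODC) or S-adenosyl-L-methionine (AdoMetDC). Untreated cells served as controls and DEHSPM-treated cells as positive controls.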

L1210 cells [11] = assay: Polyamine pool analysis in L1210 cells; format: cell-based, murine; conditions: 48 hours; for activity at 3 µM / activity at 15 µM: Mus musculus, L1210, % of untreated control; for Analogue: intracellular amount
In short: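 Cells were exposed to each analogue for 48 h at two concentrations. Washed pellets were extracted with 0.6 N HClO4 (1 ml/10^7 cells), and polyamines were quantified by HPLC of dansyl derivatives.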

[12] = test system: polyamine transport apparatus; assay: Competitive uptake determination: inhibition of [3H]spermidine transport into L1210 cells; format: cell-based, murine; conditions: analogue inhibition of spermidine transport
In short: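 Analogues competed with [3H]spermidine for uptake into L1210 cells. Values are Ki, derived from Lineweaver–Burk analysis as competitive inhibition with respect to spermidine.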

L1210 cells [13] = assay: Metabolic transformation of polyamine analogues by L1210 cells; format: in vitro ADME, murine
Protocol: The cells were washed twice with cold RPMI-1640, and the pellet was treated with 0.6 N HClO4 (1 ml/10^7 cells). Polyamine contents of the perchloric acid extracts were quantitated by HPLC of the DANSYL derivatives [Bergeron et al, J. Med. Chem., Vol. 37, supra].

[14] = test system: spermidine/spermine acetyltransferase (SSAT); assay: SSAT activity in treated L1210 cells; format: cell-based, murine; conditions: L1210, 10 μM at 48 hours (triamine analogues); Trihydrochloride
Source text: Spermidine/spermine N^1-acetyltransferase activity was based on quantitation of [^14C]-N^1-acetylspermidine formed by acetylation of SPD with [^14C] acetyl coenzyme A according to the method of Libby et al [Biochem. Pharmacol., Vol. 38, supra]. Cells treated with DENSPM were positive controls.

L1210 cells [15] = assay: L1210 growth inhibition, IC50 determination; format: cell-based, murine
Protocol: Murine L1210 leukemia cells (ATCC CCL 219) were maintained in logarithmic growth in RPMI-1640 medium containing 10% fetal calf serum or a semi-synthetic equivalent, NuSerum, 2% HEPES-MOPS buffer and 1 mM aminoguanidine.

[16] = test system: ornithine decarboxylase (ODC); assay: ODC activity in treated L1210 cells; format: cell-based, murine; conditions: L1210, 1 μM at 4 hours
In short: as §2

[17] = L1210, 48 hour exposure, read-out: IC50 48 hour, corresponding tetraamine (in parentheses)
[18] = L1210, 96 hour exposure, read-out: IC50 96 hour, corresponding tetraamine (in parentheses)

Row | SMILES | AdoMetDC activity, corresponding tetraamine (in parentheses) [1] | Ki [2] | ODC activity, corresponding tetraamine (in parentheses) [3] | SSAT activity, corresponding tetraamine (in parentheses) [4] | LD50 at 2 h ([6]; hydrochloride salts) | LD50 at 2 h [6] | IC50 (L1210 cells [8]; [17]) | IC50 (L1210 cells [8]; [18]) | Parent drug as % of total drug in the cell (L1210 cells [13]; 48 hours, 100 μM analogue) | Parent drug in L1210 cells (L1210 cells [13]; 48 hours, 100 μM analogue) | Put, corresponding tetraamine (in parentheses) (L1210 cells [5]; 100 μM) | Spd, corresponding tetraamine (in parentheses) (L1210 cells [5]; 100 μM) | Spm, corresponding tetraamine (in parentheses) (L1210 cells [5]; 100 μM) | Put, corresponding tetraamine (in parentheses) (L1210 cells [5]; 500 μM) | Spd, corresponding tetraamine (in parentheses) (L1210 cells [5]; 500 μM) | Spm, corresponding tetraamine (in parentheses) (L1210 cells [5]; 500 μM) | Analogue, corresponding tetraamine (in parentheses) (L1210 cells [5]; 100 μM) | Analogue, corresponding tetraamine (in parentheses) (L1210 cells [5]; 500 μM) | also measured
1 | CCNCCCCCNCCCCNCCCCCNCC.Cl.Cl.Cl.Cl [DE(5,4,5), 3,9,14,20-Tetraazadocosane Tetrahydrochloride] | 54% of untreated control | 16000 nM | 19% of untreated control | 190% of untreated control | 195 mg/kg | 424 µmol/kg | 400 nM | 30 nM | – | – | – | – | – | – | – | – | – | – | Put, corresponding tetraamine (in parentheses) (L1210 cells [5]; 0.75 μM): (0) %; Spd, corresponding tetraamine (in parentheses) (L1210 cells [5]; 0.75 μM): (10) %; Spm, corresponding tetraamine (in parentheses) (L1210 cells [5]; 0.75 μM): (58) %; Analogue, corresponding tetraamine (in parentheses) (L1210 cells [5]; 0.75 μM): (1.48) nmol/10^6 cells; Chronic LD50 (tetraamines) (mice [7]; hydrochloride salts): 36 mg/kg-day; Chronic LD50 (tetraamines) (mice [7]): 0.078 mmol/kg/day
2 | CCNCCCCCNCCCCNCC [DE(4,5), 3,8,14-Triazahexadecane Trihydrochloride] | – | – | – | – | 555 mg/kg | 1640 µmol/kg | – | – | 100% | 4215 pmols/10^6 | – | – | – | – | – | – | – | – | Chronic LD50 (triamines) (mice [9]; mice, i.p. t.i.d. × 6 days, hydrochloride salts): 375 mg/kg-day; Chronic LD50 (triamines) (mice [9]; mouse, in vivo, ip): 1.11 mmol/kg/day; Chronic toxicity in mice relative to the related tetraamine (mice [9]; ratio of chronic LD50 values, Table 7, Trihydrochloride): about eight-fold less toxic than the DE(4,5,4); also recorded: greater than ten-fold less toxic than DE(5,4,5); AdoMetDC activity, percent of untreated control [10]: 70% of untreated control; activity at 3 µM (L1210 cells [11]; 3 μM, read-out: Put): 0%; activity at 3 µM (L1210 cells [11]; 3 μM, read-out: Spd): 47%; activity at 3 µM (L1210 cells [11]; 3 μM, read-out: Spm): 99%; activity at 15 µM (L1210 cells [11]; 15 μM, read-out: Put): 0%; activity at 15 µM (L1210 cells [11]; 15 μM, read-out: Spd): 18%; activity at 15 µM (L1210 cells [11]; 15 μM, read-out: Spm): 98%; Analogue (L1210 cells [11]; 3 μM): 1.20 nmol/10^6 cells; Analogue (L1210 cells [11]; 15 μM): 3.40 nmol/10^6 cells; Ki [12]: 64000 nM; N-Monodealkylation (result in words) (L1210 cells [13]; 48 hours, 100 μM analogue, Trihydrochloride): do not show significant N-deethylation; also recorded: no N-deethylation; SSAT activity, percent of untreated control [14]: 120% of untreated control and 120 (120) percent of untreated control; IC50 (L1210 cells [15]; L1210, 48 hour exposure, Trihydrochloride, read-out: IC50 48 hour): 3000 to 6000 nM; IC50 (L1210 cells [15]; Mus musculus, L1210, 48 h, L1210, 48 hour exposure, read-out: IC50 48 hour): 2000 to 6000 nM; IC50 (L1210 cells [15]; Mus musculus, L1210, 96 h, L1210, 96 hour exposure, read-out: IC50 96 hour): 190 to 200 nM; ODC activity, percent of untreated control [16]: 100% of untreated control
3 | CCCNCCCNCCCCNCCCNCCC [DPSPM] | 72% of untreated control | 2300 nM | 52% of untreated control | 500% of untreated control | – | – | 3000 nM | 200 nM | – | – | – | – | – | – | – | – | – | – | Parent drug as % of total drug in the cell (L1210 cells [13]; 48 hours, 15 μM analogue): 79.0%; Parent drug in L1210 cells (L1210 cells [13]; 48 hours, 15 μM analogue): 1568 pmols/10^6; Put, corresponding tetraamine (in parentheses) (L1210 cells [5]; 15 μM): (0) %; Analogue, corresponding tetraamine (in parentheses) (L1210 cells [5]; 3 μM): (1.12) nmol/10^6 cells; Analogue, corresponding tetraamine (in parentheses) (L1210 cells [5]; 15 μM): (1.09) nmol/10^6 cells
4 | CCCNCCCNCCCNCCCNCCC [DPNSPM, N^1,N^11-Dipropylnorspermine Tetrahydrochloride] | 70% of untreated control | 11000 nM | 79% of untreated control | 460% of untreated control | – | – | > 100000 nM | 18000 nM | 78.2% | 893 pmols/10^6 | (61) % | (35) % | (77) % | (0) % | (19) % | (56) % | (0.89) nmol/10^6 cells | (1.28) nmol/10^6 cells | –
5 | CNCCCCNCCCCNCCCCNC [DMHSPM] | 45% of untreated control | 970 nM | 4% of untreated control | 140% of untreated control | – | – | > 100000 nM | 320 nM | – | – | (0) % | (0) % | (30) % | (0) % | (0) % | (27) % | (1.49) nmol/10^6 cells | (1.03) nmol/10^6 cells | N-dealkylation (result in words) (L1210 cells [13]; L1210 cells, data not shown, concentration not given): no evidence of N-dealkylation
